The text below walks through data of article PMC8111002 (Communications Biology, 2021).

Square brackets hold non-standard residues; d marks the D form. Ends that are not written are not given here. Peptide text beside a SMILES is read from it. βAla = NCCC(=O)O

Assay [1] relates to A-subunit. It is filed as binding, Escherichia coli.
For assay [2], the system named is EHEC. The following applies: mouse, in vivo; cited from earlier work.
The target in assay [3] is Stx1a A-subunit (Enterobacteria phage H19B, UniProt P08026). Put plainly: biochemical. Type of assay: binding, Escherichia coli.
Assay [4] deals with Stx2a A-subunit (Escherichia phage 933W, UniProt P09385). Put plainly: biochemical. Type of assay: binding, Escherichia coli.
In assay [5] the target is Stx1a (UniProt P08026+P69178). In words: cell-based. The arrangement: species or system Escherichia coli.
The target of assay [6] is Stx2a (Escherichia phage 933W, UniProt P09385+P09386). In words: cell-based. The arrangement: species or system Escherichia coli.
In assay [7] the target is B-subunits of Stx1a and Stx2a. As to conditions: cited from earlier work.

Regarding ARRRRA, the “inhibition of the binding between MMβA-mono and the A-subunit” value (from here on “inhibition”) in assay [1] is recorded as “efficiently inhibited”.
Regarding MMARRRR [MMA-tet], in assay [2], the “inhibitory effects against the lethality in EHEC infected mice” value is listed as “potent inhibitory effects”.
The term Kd denotes the equilibrium constant for the complex coming apart. In general, IC50 refers to the concentration needed to halve the response being measured. High values mean a need for much substance, low ones inhibition by little substance. As to `CSCC[C@H](NC(=O)[C@H](C)NC(=O)[C@@H](N)CCSC)C(=O)N[C@@H](CCSC)C(=O)NCCC(=O)N[C@@H](CCCNC(=N)N)C(=O)N[C@@H](CCCNC(=N)N)C(=O)N[C@@H](CCCNC(=N)N)C(=O)N[C@@H](CCCNC(=N)N)C(=O)N[C@@H](C)C(N)=O` [MMβA-mono] (H-MAMM[βAla]RRRRA-NH2), the Kd in assay [3] was determined as 0.032 µM; in assay [4], 0.05 µM. Also, the IC50 was determined as 59.2 µM in assay [5] and 9.6 µM in assay [6].
As to “Galα[1-4]-Galβ[1-4]-Glcβ- [free trisaccharide]”, in assay [7], the Kd entry was “mM order”.
For Arg-Arg-Arg-Arg (RRRR), the “inhibition” value in assay [1] was “efficiently inhibited”.
With Arg-Arg-Arg-Arg-Ala (RRRRA), in assay [1], the “inhibition” value is “efficiently inhibited”.
